Data published in publication PMC6010117, “Isatin: a privileged scaffold for the design of carbonic anhydrase inhibitors” (Journal of Enzyme Inhibition and Medicinal Chemistry, 2016).

How the values were obtained:
Assay in all cases: CA inhibition assay, Verpoorte method at […] nm, Lineweaver-Burk
Format in all cases: biochemical
hCA XII = molecular target: T1, hCA XII (Homo sapiens, UniProt O43570)
T1 construct: gene CA12; not described

hCA II = molecular target: T2, hCA II (Homo sapiens, UniProt P00918)
T2 construct: gene CA2

hCA I = molecular target: T3, hCA I (Homo sapiens, UniProt P00915)
T3 construct: gene CA1

hCA IX = molecular target: T4, hCA IX (Homo sapiens, UniProt Q16790)
T4 construct: gene CA9; not described

T3 sequence (P00915 2-261): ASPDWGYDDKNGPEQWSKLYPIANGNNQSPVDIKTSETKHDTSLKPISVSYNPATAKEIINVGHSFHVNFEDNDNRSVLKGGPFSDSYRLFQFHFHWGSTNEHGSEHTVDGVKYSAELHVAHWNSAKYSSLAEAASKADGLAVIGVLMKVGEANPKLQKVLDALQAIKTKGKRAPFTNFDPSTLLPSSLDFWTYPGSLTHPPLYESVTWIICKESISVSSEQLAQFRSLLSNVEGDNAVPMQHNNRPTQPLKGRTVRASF
T1 sequence (O43570 25-354): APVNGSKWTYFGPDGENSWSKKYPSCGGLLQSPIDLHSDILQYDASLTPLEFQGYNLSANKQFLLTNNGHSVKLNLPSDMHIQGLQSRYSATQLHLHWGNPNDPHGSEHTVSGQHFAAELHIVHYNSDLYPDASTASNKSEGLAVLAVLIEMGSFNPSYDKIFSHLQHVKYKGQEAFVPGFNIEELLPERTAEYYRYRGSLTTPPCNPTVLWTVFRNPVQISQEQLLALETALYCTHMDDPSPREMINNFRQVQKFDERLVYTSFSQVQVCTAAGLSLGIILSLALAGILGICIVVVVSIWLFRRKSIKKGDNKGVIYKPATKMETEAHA

Compound | Ki (hCA XII) | Ki (hCA II) | Ki (hCA I) | Ki (hCA IX)
CN1C(=O)C(=C2C(=O)Nc3c(Br)cccc32)SC1=Nc1ccc(S(N)(=O)=O)cc1 [o, EMAC 10020 o] | 824 nM | 8780 nM | 877 nM | 126 nM
CN1C(=O)C(=C2C(=O)Nc3ccc(Cl)cc32)SC1=Nc1ccc(S(N)(=O)=O)cc1 [c, EMAC 10020 c] | 865 nM | 8300 nM | 958 nM | 55.7 nM
CN1C(=O)C(=C2C(=O)Nc3ccc(C(F)(F)F)cc32)SC1=Nc1ccc(S(N)(=O)=O)cc1 [n, EMAC 10020 n] | 873 nM | 5720 nM | 945 nM | 2660 nM

Compounds with a lower Ki (hCA XII), results first:

Ki (hCA XII) | Ki (hCA II) | Ki (hCA I) | Ki (hCA IX) | Compound
440 nM | 79.1 nM | 87.6 nM | 3 nM | Cc1ccc2c(c1)C(=C1SC(=Nc3ccc(S(N)(=O)=O)cc3)N(C)C1=O)C(=O)N2 [l, EMAC 10020 l]
90.7 nM | 139 nM | 44.3 nM | 4.1 nM | CN1C(=O)C(=C2C(=O)Nc3c(F)cccc32)SC1=Nc1ccc(S(N)(=O)=O)cc1 [m, EMAC 10020 m]
85 nM | 274 nM | 50.3 nM | 50.7 nM | CN1C(=O)C(=C2C(=O)Nc3ccc(F)cc32)SC1=Nc1ccc(S(N)(=O)=O)cc1 [d, EMAC 10020 d]
